What follows are compounds tested against T1, GABAB receptor (Homo sapiens, UniProt O75899+Q9UBS5) (assay: [35S]-GTPγS binding assay, potency of PAM on the GABA dose-response). Settings: membranes from CHO cell lines expressing GABAB receptor; GABA in presence or absence of PAM.
T1 construct: expressed in transfected cells
Type: biochemical
From the text: GABABR1a and GABABR2 were cloned from human brain cDNA and subcloned into pCI-Neo (Promega) and pALTER-1(Promega), respectively. A GABABR1a-Gαqi5 fusion protein expression vector was constructed using the pCI-Neo-GABABR1a cDNA plasmid and pLEC1-Gαqi5 (Molecular Devices, Calif.). In order to make the Gαqi5 pertussis toxin insensitive, Cys356 was mutated to Gly using standard PCR methodology with the primers 5′-[…]-3′ (forward) and 5′-GCGGCCG […]-3′ (reverse). The Gαqi5mut cDNA was ligated into the BamHI and NotI sites of pcDNA3.0 (Invitrogen). The GABAB R1a coding sequence was amplified by PCR from pCI-Neo-GABABR1a using the primers, 5′-[…]-3′ (forward) and 5′-[…]-3′ (reverse) and subcloned into the BamHI site of pcDNA3.0-Gαqis5mut.
For generation of a cell line expressing the GABABR1a/GABABR2 heterodimer, GABABR1a plasmid DNA (4 μg) GABABR2 plasmid DNA (4 μg) and lipofectamine (24 μl) were mixed in 5 ml OptiMEM and incubated for 45 minutes at room temperature. The cells were exposed to the transfection medium for 5 hours, which then was replaced with culture medium. The cells were cultured for an additional 10 days before selection agents (300 μg/ml hygromycin and 400 μg/ml geneticin) were added. Twenty-four days after transfection, single cell sorting into 96-well plates by flow cytometry was performed using a FACS Vantage SE (Becton Dickinson, Palo Alto, Calif.), After expansion, the GABAB receptor functional response was tested using the FLIPR assay described below. The clone with the highest functional response was collected, expanded and then subcloned by single cell sorting. The clonal cell line with the highest peak response in the FLIPR was used in the present study.
For generation of a stable cell line expressing GABABR1a-Gαqi5 fusion protein and GABABR2, GABABR1a-Gαqi5mut plasmid DNA (8 μg) GABABR2 plasmid DNA (8 μg) and lipofectamine (24 μl) were mixed in 5 ml OptiMEM and incubated for 45 minutes at room temperature. The cells were exposed to the transfection medium for 5 hours, which then was replaced with culture medium. After forty-eight hours, the cells were detached and seeded in 6 well plates (2000 cells well) and grown in culture medium supplemented with geneticin (400 μg/ml) and zeocin (250 μg/ml). After 4 days, cells from single colonies were collected and transferred to a 24-well plate. After 10 days, the cell clones were seeded in T-25 flasks and grown for another 16 days before they were tested for GABAB receptor mediated functional response. […] The clonal cell line that gave the highest peak response in the FLIPR was used in the present study.
[^35S]-GTPγS binding assays were performed at 30° C. for 45 min in membrane buffer (100 mM NaCl, […], 1 mM EDTA, 50 mM HEPES, pH 7.4) containing 0.025 μg/μl of membrane protein (prepared from the cell lines described above) with 0.01% bovine serum albumin (fatty acid free): 10 μM GDP, 100 μM DTT and 0.53 nM [^35S]-GTPγS (Amersham-Pharmacia Biotech) in a final volume of 200 μl. Non-specific binding was determined in the presence of 20 μM GTPγS. The reaction was started by the addition of GABA at concentration between 1 mM and 0.1 nM in the presence or absence of the required concentration of PAM. The reaction was terminated by addition of ice-cold wash buffer (50 mM Tris-HCl, 5 mM MgCl2, 50 mM NaCl, pH 7.4) followed by rapid filtration under vacuum through Printed Filtermat A glass fiber filters (Wallac) (0.05% PEI treated) using a Micro 96 Harvester (Skatron Instruments). The filters were dried for 30 min at 50° C., then a paraffin scintillant pad was melted onto the filters and the bound radioactivity was determined using a 1450 Microbeta Trilux (Wallac) scintillation counter.
GABA dose-response curves in the presence and absence of test compounds were constructed using the 4-parameter logistic equation, y=ymax+((ymin−ymax)/1+(x/C)^D), where C=EC50 and D=slope factor.

T1 sequence (Q9UBS5 15-961 limits assumed): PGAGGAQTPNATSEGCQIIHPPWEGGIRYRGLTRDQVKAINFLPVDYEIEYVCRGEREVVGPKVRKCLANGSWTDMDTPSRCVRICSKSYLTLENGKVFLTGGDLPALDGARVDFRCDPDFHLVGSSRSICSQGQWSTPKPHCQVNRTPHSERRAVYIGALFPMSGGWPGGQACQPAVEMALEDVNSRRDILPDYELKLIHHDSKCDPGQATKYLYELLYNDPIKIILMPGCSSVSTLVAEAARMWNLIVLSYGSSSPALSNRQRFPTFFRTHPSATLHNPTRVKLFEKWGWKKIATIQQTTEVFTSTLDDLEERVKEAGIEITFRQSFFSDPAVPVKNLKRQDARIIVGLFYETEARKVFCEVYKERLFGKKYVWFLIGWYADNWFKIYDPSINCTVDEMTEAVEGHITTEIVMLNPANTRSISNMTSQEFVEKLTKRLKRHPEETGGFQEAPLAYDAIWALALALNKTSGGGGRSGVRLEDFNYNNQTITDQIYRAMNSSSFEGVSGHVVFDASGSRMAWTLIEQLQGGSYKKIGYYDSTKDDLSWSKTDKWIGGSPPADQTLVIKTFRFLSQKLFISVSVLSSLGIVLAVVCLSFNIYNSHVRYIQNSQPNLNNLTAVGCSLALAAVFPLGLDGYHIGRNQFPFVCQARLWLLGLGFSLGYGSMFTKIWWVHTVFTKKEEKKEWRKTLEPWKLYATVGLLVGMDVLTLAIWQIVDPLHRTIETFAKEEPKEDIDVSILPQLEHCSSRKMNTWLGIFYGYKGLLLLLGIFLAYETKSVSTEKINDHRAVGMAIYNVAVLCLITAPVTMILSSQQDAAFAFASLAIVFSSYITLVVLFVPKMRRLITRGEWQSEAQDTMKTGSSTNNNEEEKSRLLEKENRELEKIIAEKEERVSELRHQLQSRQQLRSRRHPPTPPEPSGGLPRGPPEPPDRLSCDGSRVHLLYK
T1 sequence (O75899 42-941): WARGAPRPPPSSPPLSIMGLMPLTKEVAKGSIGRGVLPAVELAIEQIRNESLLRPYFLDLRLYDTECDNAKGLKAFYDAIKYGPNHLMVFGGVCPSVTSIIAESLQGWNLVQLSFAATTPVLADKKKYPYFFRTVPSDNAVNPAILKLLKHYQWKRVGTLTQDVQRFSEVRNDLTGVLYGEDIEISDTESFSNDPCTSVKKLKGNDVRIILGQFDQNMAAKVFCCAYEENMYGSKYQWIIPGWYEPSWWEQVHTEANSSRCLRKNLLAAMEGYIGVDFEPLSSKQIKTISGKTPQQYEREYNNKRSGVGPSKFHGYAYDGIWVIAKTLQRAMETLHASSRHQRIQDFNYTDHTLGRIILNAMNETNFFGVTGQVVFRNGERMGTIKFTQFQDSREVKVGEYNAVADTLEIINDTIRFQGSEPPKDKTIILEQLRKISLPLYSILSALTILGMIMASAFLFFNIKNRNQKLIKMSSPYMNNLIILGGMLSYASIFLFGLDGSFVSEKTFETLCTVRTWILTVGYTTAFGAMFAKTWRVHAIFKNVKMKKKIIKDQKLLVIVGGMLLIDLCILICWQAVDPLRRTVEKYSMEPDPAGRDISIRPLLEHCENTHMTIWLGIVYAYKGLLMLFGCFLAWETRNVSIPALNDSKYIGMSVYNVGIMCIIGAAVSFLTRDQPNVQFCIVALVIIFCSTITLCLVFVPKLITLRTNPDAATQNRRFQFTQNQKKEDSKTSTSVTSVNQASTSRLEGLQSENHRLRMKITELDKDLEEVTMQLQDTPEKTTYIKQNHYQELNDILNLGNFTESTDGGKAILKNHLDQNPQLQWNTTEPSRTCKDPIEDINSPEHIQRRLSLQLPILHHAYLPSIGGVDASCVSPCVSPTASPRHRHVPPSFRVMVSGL

Compound	IC50 [µM]
COCC(C)(C)OC(=O)c1c(NC(=O)COCc2ccccc2)nc(OC)n1-c1ccc2c(c1)OCO2 [Example 17, 2-methoxy-1,1-dimethylethyl 1-(1,3-benzodioxol-5-yl)-4-{[(benzyloxy)acetyl]amino}-2-methoxy-1H-imidazole-5-carboxylate]	3.4
CCc1nc(NC(=O)c2ccc(Cl)cc2Cl)c(C(=O)OC(C)(C)C)n1-c1ccc(F)cc1 [Example 20, Tert-butyl 4-[(2,4-dichlorobenzoyl)amino]-2-ethyl-1-(4-fluorophenyl)-1H-imidazole-5-carboxylate]	3.7
CCC1(C)CCC(C(C)(C)OC(=O)c2c(NC(=O)c3ccc(Cl)cc3Cl)nc(OC)n2-c2ccc(F)cc2)O1 (stereo not shown) [Example 14, 1-(5-ethyl-5-methyltetrahydrofuran-2-yl)-1-methylethyl 4-[(2,4-dichlorobenzoyl)amino]-1-(4-fluorophenyl)-2-methoxy-1H-imidazole-5-carboxylate]	2.1
COc1nc(NC(=O)c2ccc(Cl)cc2)c(C(=O)OC(C)(C)C)n1-c1ccc(F)cc1 [Example 2, Tert-butyl 4-[(4-chlorobenzoyl)amino]-1-(4-fluorophenyl)-2-methoxy-1H-imidazole-5-carboxylate]	3.1
COc1nc(NC(=O)c2ccc(Oc3ccccc3)nc2)c(C(=O)OC(C)(C)C)n1-c1ccc(F)cc1 [Example 7, Tert-butyl 1-(4-fluorophenyl)-2-methoxy-4-{[(6-phenoxypyridin-3-yl)carbonyl]amino}-1H-imidazole-5-carboxylate]	1.6
COc1nc(NC(=O)c2ccc(Cl)cc2Cl)c(C(=O)OC(C)(C)C)n1-c1ccc(F)cc1 [Example 9, Tert-butyl 4-[(2,4-dichlorobenzoyl)amino]-1-(4-fluorophenyl)-2-methoxy-1H-imidazole-5-carboxylate]	2.16
COc1nc(NC(=O)C2COc3ccccc3O2)c(C(=O)OC(C)(C)C)n1-c1ccc(F)cc1 (stereo not shown) [Example 3, Tert-butyl 4-[(2,3-dihydro-1,4-benzodioxin-2-ylcarbonyl)amino]-1-(4-fluorophenyl)-2-methoxy-1H-imidazole-5-carboxylate]	1.5
CCOC(=O)C1(OC(=O)c2c(NC(=O)c3ccc(Cl)cc3Cl)nc(OC)n2-c2ccc(F)cc2)CC1 [Example 13, 1-(ethoxycarbonyl)cyclopropyl 4-[(2,4-dichlorobenzoyl)amino]-1-(4-fluorophenyl)-2-methoxy-1H-imidazole-5-carboxylate]	2
COc1nc(NC(=O)C2(c3ccc(Cl)cc3)CCCC2)c(C(=O)OC(C)(C)C)n1-c1ccc(F)cc1 [Example 4, Tert-butyl 4-({[1-(4-chlorophenyl)cyclopentyl]carbonyl}amino)-1-(4-fluorophenyl)-2-methoxy-1H-imidazole-5-carboxylate]	1.4
COc1nc(NC(=O)c2scc(S(=O)(=O)C(C)C)c2Cl)c(C(=O)OC(C)(C)C)n1-c1ccc(F)cc1 [Example 1, Tert-butyl 4-({[3-chloro-4-(isopropylsulfonyl)-2-thienyl]carbonyl}amino)-1-(4-fluorophenyl)-2-methoxy-1H-imidazole-5-carboxylate]	4
COCCOCC(C)(C)OC(=O)c1c(NC(=O)c2ccc(Cl)cc2Cl)nc(OC)n1-c1ccc(F)cc1 [Example 10, 2-(2-methoxyethoxy)-1,1-dimethylethyl 4-[(2,4-dichlorobenzoyl)amino]-1-(4-fluorophenyl)-2-methoxy-1H-imidazole-5-carboxylate]	1.5
COc1nc(NC(=O)c2cnn(-c3ccc(Cl)cc3)c2C(F)(F)F)c(C(=O)OC(C)(C)C)n1-c1ccc(F)cc1 [Example 6, Tert-butyl 4-({[1-(4-chlorophenyl)-5-(trifluoromethyl)-1H-pyrazol-4-yl]carbonyl}amino)-1-(4-fluorophenyl)-2-methoxy-1H-imidazole-5-carboxylate]	1.6
COc1nc(NC(=O)C(OC)(c2ccccc2)C(F)(F)F)c(C(=O)OC(C)(C)C)n1-c1ccc(F)cc1 (stereo not shown) [Example 5, Tert-butyl 1-(4-fluorophenyl)-2-methoxy4-[(3,3,3-trifluoro-2-methoxy-2-phenylpropanoyl)amino]-1H-imidazole-5-carboxylate]	6.2

More lines, now with the values ahead:

IC50 [µM]	Compound
1.4	COCC(C)(C)OC(=O)c1c(NC(=O)C2COc3ccccc3O2)nc(OC)n1-c1ccc2c(c1)OCO2 (stereo not shown) [Example 15, 2-methoxy-1,1-dimethylethyl 1-(1,3-benzodioxol-5-yl)-4-[(2,3-dihydro-1,4-benzodioxin-2-ylcarbonyl)amino]-2-methoxy-1H-imidazole-5-carboxylate]
1.1	COc1nc(NC(=O)c2ccc(Cl)cc2Cl)c(C(=O)OC(C)(C)COCC(F)(F)F)n1-c1ccc(F)cc1 [Example 11, 1,1-dimethyl-2-(2,2,2-trifluoroethoxy)ethyl 4-[(2,4-dichlorobenzoyl)amino]-1-(4-fluorophenyl)-2-methoxy-1H-imidazole-5-carboxylate]
0.81	COc1nc(NC(=O)c2c(F)cc(F)cc2F)c(C(=O)OC(C)(C)C)n1-c1ccc(F)cc1 [Example 8, Tert-butyl 1-(4-fluorophenyl)-2-methoxy-4-[(2,4,6-trifluorobenzoyl)amino]-1H-imidazole-5-carboxylate]
0.96	COc1nc(NC(=O)c2ccc(Cl)cc2Cl)c(C(=O)OC(C)(C)COc2ccccc2)n1-c1ccc(F)cc1 [Example 12, 1,1-dimethyl-2-phenoxyethyl 4-[(2,4-dichlorobenzoyl)amino]-1-(4-fluorophenyl)-2-methoxy-1H-imidazole-5-carboxylate]
1.3	COCC(C)(C)OC(=O)c1c(NC(=O)c2ccc(Cl)cc2Cl)nc(OC)n1-c1cccc(OC)c1 [Example 18, 2-methoxy-1,1-dimethylethyl 4-[(2,4-dichlorobenzoyl)amino]-2-methoxy-1-(3-methoxyphenyl)-1H-imidazole-5-carboxylate]
1.1	CCc1nc(NC(=O)c2ccc(N=[N+]=[N-])cc2)c(C(=O)OC(C)(C)C)n1-c1ccc(F)cc1 [Example 19, Tert-butyl 4-[(4-azidobenzoyl)amino]-2-ethyl-1-(4-fluorophenyl)-1H-imidazole-5-carboxylate]
1.2	COCC(C)(C)OC(=O)c1c(NC(=O)c2ccc(Cl)cc2)nc(OC)n1-c1ccc2c(c1)OCO2 [Example 16, 2-methoxy-1,1-dimethylethyl 1-(1,3-benzodioxol-5-yl)-4-[(4-chlorobenzoyl)amino]-2-methoxy-1H-imidazole-5-carboxylate]

Same assay, conditions: potency of PAM in GTPγS assays

EC50 [µM]	Compound
2.16	COc1nc(NC(=O)c2ccc(Cl)cc2Cl)c(C(=O)OC(C)(C)C)n1-c1ccc(F)cc1 [Example 9, Tert-butyl 4-[(2,4-dichlorobenzoyl)amino]-1-(4-fluorophenyl)-2-methoxy-1H-imidazole-5-carboxylate]
0.96	COc1nc(NC(=O)c2ccc(Cl)cc2Cl)c(C(=O)OC(C)(C)COc2ccccc2)n1-c1ccc(F)cc1 [Example 12, 1,1-dimethyl-2-phenoxyethyl 4-[(2,4-dichlorobenzoyl)amino]-1-(4-fluorophenyl)-2-methoxy-1H-imidazole-5-carboxylate]

Reference: patent US20080262064A1, “Novel Compounds For The Treatment Of GI Disorders 682” (ASTRAZENECA AB, priority 2007, published 2008)
